This note sets out measurements from ChEMBL document CHEMBL2163222 (J Med Chem, 2012).

The structures appear in SMILES notation. Calls of active or inactive are those of the source. No cut-off for these calls is given here.

Series [1] can be described thus: Cytostatic activity in human U373 cells at 24 uM assessed global growth ratio after 72 hrs by quantitative video microscopy. The format is functional, U-373MG ATCC.
Series [2] addresses Dual specificity tyrosine-phosphorylation-regulated kinase 1A (Homo sapiens, UniProt Q13627). The experiment in a line: Inhibition of DYRK1A kinase using RBER-CHKtide substrate by radiometric protein kinase assay.
A short description of series [3]: Growth inhibition of human OE21 cells after 3 days by MTT assay. The format is functional, cell-based. Conditions: OE21, 72 h. On the technique in general: Tetrazolium dyes change colour on reduction, which living cells bring about.
A further series concerns OE33. The experiment in a line: Growth inhibition of human OE33 cells after 3 days by MTT assay. It counts as functional, cell-based. Conditions: OE33, 72 h.
Series [4] has as its system Hs 683. The experiment in a line: cells. Conditions: Homo sapiens, Hs 683, 72 h.
A further series concerns T98G. In words: cells. Conditions: Homo sapiens, 72 h.
A short description of a further series: cells. Conditions: Homo sapiens, U373 MG, 72 h.
Series [5] in a line: Cytostatic activity in human U373 cells at 64 uM assessed global growth ratio after 72 hrs by quantitative video microscopy. The format is functional, U-373MG ATCC.
Series [6] in a line: Inhibition of eIF2 protein expression in human U373 cells at 1 uM after 4 hrs by Western blotting method. The format is functional, cell-based. Conditions: U-373MG ATCC. In general terms: In western blotting, separated proteins are transferred to a membrane and probed.
A further series has as its system U-373MG ATCC. The experiment in a line: Inhibition of eIF2 activity in human U373 cells at 1 uM after 4 hrs by Western blotting method. The format is functional, cell-based.
The nature of series [7]: Inhibition of eIF2 protein expression in human Hs683 cells at 5 uM after 4 hrs by Western blotting method. The format is functional, cell-based. Conditions: Hs 683.
In series [8] the test system is Hs 683. The experiment in a line: Inhibition of eIF2 activity in human Hs683 cells at 5 uM after 4 hrs by Western blotting method. The format is functional, cell-based.
For the next series, the species on record is Mus musculus. The experiment in a line: Toxicity in mouse assessed as drug tolerance. The format is organism-based. Conditions: in vivo.
The nature of series [9]: Solubility of compound at pH 7.4. The format is physicochemical. Conditions: buffer.
Series [10] addresses Tyrosine-protein kinase Tec (Homo sapiens) (UniProt P42680). In words: Inhibition of TEC assessed as residual enzyme activity at 10 uM by radiometric protein kinase assay.
The target in series [11] is Tyrosine-protein kinase Fer (Homo sapiens) (UniProt P16591). In words: Inhibition of FER assessed as residual enzyme activity at 10 uM by radiometric protein kinase assay.
Series [12] concerns the target TGF-beta receptor type-2 (Homo sapiens) (UniProt P37173). The experiment in a line: Inhibition of TGFB-R2 assessed as residual enzyme activity at 10 uM by radiometric protein kinase assay.
For series [13], the target named is TGF-beta receptor type-1 (Homo sapiens) (UniProt P36897). In words: Inhibition of TGFB-R1 assessed as residual enzyme activity at 10 uM by radiometric protein kinase assay.
Series [14] deals with MAP kinase-interacting serine/threonine-protein kinase 1 (Homo sapiens) (UniProt Q9BUB5). The experiment in a line: Inhibition of MKNK1 assessed as residual enzyme activity at 10 uM by radiometric protein kinase assay.
In series [15] the target is Myosin light chain kinase 2, skeletal/cardiac muscle (Homo sapiens) (UniProt Q9H1R3). In words: Inhibition of MYLK2 assessed as residual enzyme activity at 10 uM by radiometric protein kinase assay.
The target of series [16] is Myosin light chain kinase, smooth muscle (Homo sapiens) (UniProt Q15746). In words: Inhibition of MYLK assessed as residual enzyme activity at 10 uM by radiometric protein kinase assay.
Series [17] addresses Calcium/calmodulin-dependent protein kinase type II subunit delta (Homo sapiens) (UniProt Q13557). In words: Inhibition of CAMK2D assessed as residual enzyme activity at 10 uM by radiometric protein kinase assay.
Series [18] deals with Calcium/calmodulin-dependent protein kinase type II subunit alpha (Homo sapiens) (UniProt Q9UQM7). The experiment in a line: Inhibition of CAMK2A assessed as residual enzyme activity at 10 uM by radiometric protein kinase assay.
The target of series [19] is Serine/threonine-protein kinase 17A (Homo sapiens) (UniProt Q9UEE5). The experiment in a line: Inhibition of STK17A assessed as residual enzyme activity at 10 uM by radiometric protein kinase assay.
A short description of series [20]: Cytostatic activity in human U373 cells at 0.9 uM assessed global growth ratio after 72 hrs by quantitative video microscopy. The format is functional, U-373MG ATCC.
In series [21] the target is Tyrosine-protein kinase CSK (Homo sapiens) (UniProt P41240). The experiment in a line: Inhibition of CSK assessed as residual enzyme activity at 10 uM by radiometric protein kinase assay.
The nature of series [22]: Cytostatic activity in human U373 cells at 31 uM assessed global growth ratio after 72 hrs by quantitative video microscopy. The format is functional, U-373MG ATCC.
Series [23] is described as follows: Cytostatic activity in human U373 cells at 18 uM assessed global growth ratio after 72 hrs by quantitative video microscopy. It counts as functional, U-373MG ATCC.

Sequence of Tyrosine-protein kinase Fer (Homo sapiens) (P16591 whole entry, looked up): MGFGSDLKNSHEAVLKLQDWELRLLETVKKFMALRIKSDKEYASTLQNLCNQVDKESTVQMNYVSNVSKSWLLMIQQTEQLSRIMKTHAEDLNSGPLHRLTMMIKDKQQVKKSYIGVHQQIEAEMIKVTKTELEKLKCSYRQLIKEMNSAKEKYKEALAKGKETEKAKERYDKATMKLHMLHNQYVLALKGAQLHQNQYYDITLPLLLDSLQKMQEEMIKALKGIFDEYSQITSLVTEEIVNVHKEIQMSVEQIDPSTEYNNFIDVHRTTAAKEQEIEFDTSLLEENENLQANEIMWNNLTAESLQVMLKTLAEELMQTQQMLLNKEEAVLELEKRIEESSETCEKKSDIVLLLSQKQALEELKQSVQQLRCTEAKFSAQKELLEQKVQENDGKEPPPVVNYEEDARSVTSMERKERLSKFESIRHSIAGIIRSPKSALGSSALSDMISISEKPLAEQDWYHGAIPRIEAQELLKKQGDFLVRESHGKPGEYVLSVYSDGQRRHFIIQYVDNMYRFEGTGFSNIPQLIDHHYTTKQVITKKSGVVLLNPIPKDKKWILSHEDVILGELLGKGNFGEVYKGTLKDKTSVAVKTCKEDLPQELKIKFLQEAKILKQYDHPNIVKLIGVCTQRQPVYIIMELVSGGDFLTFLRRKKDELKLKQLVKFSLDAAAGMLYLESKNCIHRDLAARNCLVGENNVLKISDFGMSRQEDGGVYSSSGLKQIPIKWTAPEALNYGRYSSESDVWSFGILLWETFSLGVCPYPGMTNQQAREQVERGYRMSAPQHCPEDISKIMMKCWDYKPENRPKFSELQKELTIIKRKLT
Sequence of Tyrosine-protein kinase CSK (Homo sapiens) (P41240 whole entry, looked up): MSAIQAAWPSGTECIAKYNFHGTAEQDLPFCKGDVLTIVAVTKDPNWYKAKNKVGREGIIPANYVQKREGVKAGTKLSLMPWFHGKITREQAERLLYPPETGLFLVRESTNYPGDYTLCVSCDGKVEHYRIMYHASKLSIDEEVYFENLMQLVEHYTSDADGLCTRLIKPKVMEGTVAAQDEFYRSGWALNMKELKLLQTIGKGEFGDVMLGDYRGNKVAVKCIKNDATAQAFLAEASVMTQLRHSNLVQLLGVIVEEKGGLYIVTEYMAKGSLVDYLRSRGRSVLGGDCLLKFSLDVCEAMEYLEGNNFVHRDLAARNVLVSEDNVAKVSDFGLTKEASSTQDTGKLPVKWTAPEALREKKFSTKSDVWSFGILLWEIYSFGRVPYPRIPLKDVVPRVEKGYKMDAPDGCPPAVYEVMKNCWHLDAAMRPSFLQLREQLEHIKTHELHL
Sequence of Calcium/calmodulin-dependent protein kinase type II subunit alpha (Homo sapiens) (Q9UQM7 whole entry): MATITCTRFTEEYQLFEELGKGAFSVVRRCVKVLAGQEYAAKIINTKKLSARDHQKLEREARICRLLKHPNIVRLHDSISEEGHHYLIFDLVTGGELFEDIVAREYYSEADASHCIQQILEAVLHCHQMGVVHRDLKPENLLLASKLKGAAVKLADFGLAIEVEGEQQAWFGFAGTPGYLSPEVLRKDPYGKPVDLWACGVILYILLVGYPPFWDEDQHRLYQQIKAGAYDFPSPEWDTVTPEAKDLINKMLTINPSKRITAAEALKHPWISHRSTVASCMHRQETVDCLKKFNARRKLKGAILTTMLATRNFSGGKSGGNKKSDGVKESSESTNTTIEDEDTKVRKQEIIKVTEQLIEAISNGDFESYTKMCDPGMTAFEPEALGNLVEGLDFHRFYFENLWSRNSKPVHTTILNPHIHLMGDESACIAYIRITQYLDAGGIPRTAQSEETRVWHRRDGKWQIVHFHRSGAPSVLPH
Sequence of Myosin light chain kinase, smooth muscle (Homo sapiens) (Q15746 whole entry): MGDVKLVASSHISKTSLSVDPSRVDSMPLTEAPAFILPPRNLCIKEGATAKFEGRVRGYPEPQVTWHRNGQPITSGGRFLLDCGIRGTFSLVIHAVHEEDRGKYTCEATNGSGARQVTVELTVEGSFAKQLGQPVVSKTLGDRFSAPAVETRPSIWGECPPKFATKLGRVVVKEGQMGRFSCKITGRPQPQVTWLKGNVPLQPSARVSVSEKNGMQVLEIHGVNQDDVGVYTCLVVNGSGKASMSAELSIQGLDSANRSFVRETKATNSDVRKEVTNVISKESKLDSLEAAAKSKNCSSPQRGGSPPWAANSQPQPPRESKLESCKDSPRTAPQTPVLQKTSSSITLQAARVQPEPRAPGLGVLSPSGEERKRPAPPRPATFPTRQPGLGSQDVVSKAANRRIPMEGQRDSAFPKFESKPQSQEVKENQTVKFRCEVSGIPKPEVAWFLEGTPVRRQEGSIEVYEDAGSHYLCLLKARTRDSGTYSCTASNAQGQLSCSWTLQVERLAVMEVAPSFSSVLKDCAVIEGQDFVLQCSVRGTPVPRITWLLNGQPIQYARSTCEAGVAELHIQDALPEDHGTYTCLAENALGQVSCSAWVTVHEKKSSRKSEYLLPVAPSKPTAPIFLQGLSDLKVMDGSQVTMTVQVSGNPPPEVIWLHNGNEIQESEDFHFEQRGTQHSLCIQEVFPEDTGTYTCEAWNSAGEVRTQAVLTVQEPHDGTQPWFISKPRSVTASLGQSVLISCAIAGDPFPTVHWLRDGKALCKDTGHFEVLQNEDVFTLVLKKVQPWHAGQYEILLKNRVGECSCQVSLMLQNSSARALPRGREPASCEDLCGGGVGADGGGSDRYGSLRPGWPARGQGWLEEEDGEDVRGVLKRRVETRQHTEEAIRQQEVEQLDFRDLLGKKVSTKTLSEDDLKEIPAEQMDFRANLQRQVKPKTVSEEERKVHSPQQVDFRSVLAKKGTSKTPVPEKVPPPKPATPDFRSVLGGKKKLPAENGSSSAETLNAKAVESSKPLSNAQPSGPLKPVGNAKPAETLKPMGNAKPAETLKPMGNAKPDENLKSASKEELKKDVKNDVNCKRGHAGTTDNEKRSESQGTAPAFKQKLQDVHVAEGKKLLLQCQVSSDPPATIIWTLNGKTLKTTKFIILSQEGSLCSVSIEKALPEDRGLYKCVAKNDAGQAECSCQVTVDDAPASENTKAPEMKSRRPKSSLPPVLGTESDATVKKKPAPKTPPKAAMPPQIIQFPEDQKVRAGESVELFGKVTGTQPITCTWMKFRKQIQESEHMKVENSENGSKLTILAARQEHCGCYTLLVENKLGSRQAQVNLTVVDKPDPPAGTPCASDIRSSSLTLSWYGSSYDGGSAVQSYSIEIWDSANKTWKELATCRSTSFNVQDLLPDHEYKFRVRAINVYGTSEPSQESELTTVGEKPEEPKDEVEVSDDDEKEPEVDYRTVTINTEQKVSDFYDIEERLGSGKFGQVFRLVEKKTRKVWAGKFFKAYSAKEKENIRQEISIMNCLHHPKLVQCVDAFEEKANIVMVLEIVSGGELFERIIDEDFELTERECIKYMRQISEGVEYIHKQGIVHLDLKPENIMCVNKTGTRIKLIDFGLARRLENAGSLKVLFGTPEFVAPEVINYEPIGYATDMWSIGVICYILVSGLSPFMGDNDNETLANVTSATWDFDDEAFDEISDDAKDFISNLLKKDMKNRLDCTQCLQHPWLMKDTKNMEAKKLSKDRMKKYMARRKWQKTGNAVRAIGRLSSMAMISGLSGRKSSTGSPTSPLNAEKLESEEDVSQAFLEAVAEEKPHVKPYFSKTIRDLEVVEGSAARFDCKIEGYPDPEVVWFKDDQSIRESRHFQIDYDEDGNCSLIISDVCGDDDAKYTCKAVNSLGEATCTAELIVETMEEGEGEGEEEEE
Sequence of Calcium/calmodulin-dependent protein kinase type II subunit delta (Homo sapiens) (Q13557 whole entry): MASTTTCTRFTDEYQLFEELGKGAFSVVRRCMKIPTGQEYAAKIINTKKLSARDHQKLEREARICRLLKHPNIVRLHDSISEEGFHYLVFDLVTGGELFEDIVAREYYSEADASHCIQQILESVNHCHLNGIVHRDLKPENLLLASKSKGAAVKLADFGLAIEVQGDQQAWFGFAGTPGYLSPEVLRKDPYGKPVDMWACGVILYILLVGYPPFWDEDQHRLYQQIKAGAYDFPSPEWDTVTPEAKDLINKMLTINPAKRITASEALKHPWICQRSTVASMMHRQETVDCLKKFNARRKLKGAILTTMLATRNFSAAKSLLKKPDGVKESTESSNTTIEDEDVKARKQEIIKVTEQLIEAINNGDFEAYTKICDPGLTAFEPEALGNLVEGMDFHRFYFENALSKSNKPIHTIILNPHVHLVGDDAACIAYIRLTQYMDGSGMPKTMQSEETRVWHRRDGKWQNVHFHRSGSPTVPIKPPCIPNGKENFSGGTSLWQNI
Sequence of Serine/threonine-protein kinase 17A (Homo sapiens) (Q9UEE5 whole entry): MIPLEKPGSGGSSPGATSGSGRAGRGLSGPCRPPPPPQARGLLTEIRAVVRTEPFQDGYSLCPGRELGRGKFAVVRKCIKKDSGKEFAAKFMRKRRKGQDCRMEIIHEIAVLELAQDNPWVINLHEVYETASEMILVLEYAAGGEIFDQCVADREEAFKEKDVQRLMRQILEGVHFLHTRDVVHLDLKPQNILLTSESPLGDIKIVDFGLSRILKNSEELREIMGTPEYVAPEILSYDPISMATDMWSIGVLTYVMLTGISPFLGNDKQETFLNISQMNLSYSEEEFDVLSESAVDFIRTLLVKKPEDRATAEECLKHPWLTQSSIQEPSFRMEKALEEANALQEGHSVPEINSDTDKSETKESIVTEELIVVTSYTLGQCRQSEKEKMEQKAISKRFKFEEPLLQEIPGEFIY
Sequence of MAP kinase-interacting serine/threonine-protein kinase 1 (Homo sapiens) (Q9BUB5 whole entry, looked up): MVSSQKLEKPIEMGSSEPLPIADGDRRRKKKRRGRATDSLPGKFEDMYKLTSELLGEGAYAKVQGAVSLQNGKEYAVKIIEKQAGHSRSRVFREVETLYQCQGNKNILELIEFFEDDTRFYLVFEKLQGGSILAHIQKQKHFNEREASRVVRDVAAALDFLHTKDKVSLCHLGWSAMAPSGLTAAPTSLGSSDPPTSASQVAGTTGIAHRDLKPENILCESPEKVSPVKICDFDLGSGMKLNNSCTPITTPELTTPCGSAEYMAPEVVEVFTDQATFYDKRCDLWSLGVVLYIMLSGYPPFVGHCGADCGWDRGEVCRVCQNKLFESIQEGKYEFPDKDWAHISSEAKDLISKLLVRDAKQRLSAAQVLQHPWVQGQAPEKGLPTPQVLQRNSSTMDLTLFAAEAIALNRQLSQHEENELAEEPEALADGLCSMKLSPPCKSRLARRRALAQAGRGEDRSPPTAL

The IC50 is the concentration needed to halve the response being measured. On to `Cc1nccc2c1[nH]c1cc(OCc3cccnc3)ccc12`, for which, in series [1], the Ratio stood at 0.29. In addition, the IC50 worked out at 10 µM in [2]; 28 µM in [3]; 31 µM in the series on OE33; 30 µM in the series with Hs 683 [4]; 29 µM in the series with T98G; 24 µM in “cells”.
With `COCCOc1ccc2c(c1)[nH]c1c(C)nccc12`, the Ratio in series [5] is listed as 0.23. For the same compound, the IC50 in [2] worked out at 16 µM; in series [3], 53 µM; in the series with OE33 it was 66 µM; in the series with Hs 683 [4], 53 µM; in the series with T98G, 61 µM; in the series “cells”, 64 µM.
By solubility is commonly meant the concentration that dissolves in the medium under given conditions. For the compound `Cc1c2c(cc[n+]1Cc1ccc(F)cc1)c1ccc(OCc3cccc(F)c3)cc1n2Cc1cccc(F)c1.[Br-]`, the inhibition result (in series [6]; in the series on U-373MG ATCC; in [7]; with Hs 683 [8]) was “Active” each time. The Activity result in the series listed under Mus musculus is “Non-toxic”; in series [10], 8%; in series [11], 7%; in series [12], 6%; in series [13], 6%; in series [14], 10%. Moreover, the Activity was 7% in [15]; 2% in series [16]; 2% in series [17]; 1% in [18]; under 1% in [19]; 10% in series [21]. In series [9], the solubility came out at 53 µM. For the same compound, in [20], the Ratio is 0.53. Also, the IC50 in series [3] amounted to 2.9 µM; with OE33 it was 3.4 µM; with Hs 683 [4], 4.5 µM; in the series on T98G, 1.9 µM; in the series “cells”, 0.9 µM.
Turning to `Cc1nccc2c3ccc(OCC4CCCCC4)cc3n(CC3CCCCC3)c12`, in series [22], the Ratio stood at 0.17. In addition, the IC50 was over 10 µM in series [2]; 17 µM in series [3]; 15 µM with OE33; 30 µM in the series with Hs 683 [4]; 32 µM with T98G; 31 µM in “cells”.
Take `Cc1nccc2c3ccc(OCc4ccccc4)cc3n(Cc3ccccc3)c12`: the solubility in [9] (read-out: solubility) was under 3 µM. In addition, the Ratio in [23] worked out at 0.3. The IC50 in series [3] came out at 28 µM; in the series with OE33, 40 µM; with Hs 683 [4] it was 33 µM; in the series on T98G, 36 µM; in the series “cells”, 18 µM.
`Cc1c2[nH]c3cc(OCc4ccccc4)ccc3c2cc[n+]1Cc1ccccc1`: the IC50 in [3] amounted to 6 µM; in the series with OE33, 5.5 µM; in the series with Hs 683 [4] it was 3.6 µM; with T98G it was 5.6 µM; in “cells” it was 3.9 µM.
